# Read-outs that look alike come from different tables or passages of the source.
# Experiments:
# [1] = test system: osteoclast precursors (bone marrow hematopoietic cells); format: cell-based, SD rats; conditions: read-out: IC50 Osteoclastogenesis
# [2] = test system: ovariectomized (OVX) mice; design: species or system ICR mice; conditions: mouse, in vivo
# [3] = test system: osteoarthritis rats; design: species or system Sprague-Dawley rats; conditions: rat, in vivo
# [4] = test system: osteoarthritic rats; conditions: rat, in vivo
# [5] = test system: osteoarthritic mice; conditions: mouse, in vivo
# [6] = test system: VEGF-induced angiogenesis; design: species or system C57BL/6 mice; conditions: mouse, in vivo
# [7] = molecular target: T1, Endothelin ETB (Homo sapiens, UniProt P24530); format: binding
# T1 construct: MDS Pharma services, Taipei, Taiwan (contract assay)
# T1 sequence (P24530 27-442): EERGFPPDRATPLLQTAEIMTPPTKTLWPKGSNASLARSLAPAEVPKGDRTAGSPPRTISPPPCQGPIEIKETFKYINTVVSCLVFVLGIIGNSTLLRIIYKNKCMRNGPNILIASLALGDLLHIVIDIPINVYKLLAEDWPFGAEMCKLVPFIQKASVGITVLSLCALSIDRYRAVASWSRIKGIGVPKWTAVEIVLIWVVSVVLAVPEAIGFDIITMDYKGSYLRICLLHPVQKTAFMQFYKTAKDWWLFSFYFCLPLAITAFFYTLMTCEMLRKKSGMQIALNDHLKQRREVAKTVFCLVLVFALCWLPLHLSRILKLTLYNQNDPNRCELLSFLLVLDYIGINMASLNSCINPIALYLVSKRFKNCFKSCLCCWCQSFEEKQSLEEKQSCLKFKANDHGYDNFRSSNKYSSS
# [8] = test system: Sodium Channel (Site 2); format: binding
# [9] = mouse, in vivo
substance,measurement,setting,value
"RD: rhodostomin variant having a RGD motif variant ^48PRLDMP^53, SEQ ID NO: 36",IC50,[1],3.32 nM
same,BMC,[2],0.582 ± 0.009 g
same,BMD,[2],0.085 ± 0.002 g/cm^2
same,C-terminal telopeptide of COL(1)α1 chain,[2],533 ± 27.4 ng/mL
same,BMC,"[2]; po, 1.5 mg/kg",0.627 ± 0.008 g
same,BMD,"[2]; po, 1.5 mg/kg",0.091 ± 0.001 g/cm^2
same,C-terminal telopeptide of COL(1)α1 chain,"[2]; po, 1.5 mg/kg",391 ± 8.3 ng/mL
same,chondrocyte layer destruction in knee joint,[3],inhibited the chondrocyte layer destruction
same,"osteoarthritis-induced elevation of serum cytokines (c-reactive protein, IL-1β, IL-6)",[4],markedly inhibited the osteoarthritis-induced elevation of cytokines
same,"osteoarthritis-induced elevation of serum cytokines (c-reactive protein, IL-1, IL-6)",[5],markedly inhibited the osteoarthritis-induced elevation of cytokines
same,hemoglobin content in MATRIGEL plugs,[6],reduced hemoglobin content
same,inhibition of angiogenesis in MATRIGEL plug,[6],effective in inhibiting angiogenesis
same,"Inhibition, Endothelin ETB",[7],10%
same,"Inhibition, Sodium Channel (Site 2)",[8],2%
same,effect on tail bleeding (clotting) time,[9],only slightly affected the clotting time

# From patent US8183201B2 (priority 2006, dated 2012)
